Assay results: the supplement of paper PMC10307832

Columns and labels:
Test in all cases: relative viability (nuclei count vs DMSO), 5 days (fraction); higher = more cells survive
Shikonin + Olaparib = compound: CC(C)=CC[C@@H](O)C1=CC(=O)c2c(O)ccc(O)c2C1=O [Shikonin] + O=C(c1cc(Cc2n[nH]c(=O)c3ccccc23)ccc1F)N1CCN(C(=O)C2CC2)CC1 [Olaparib] (partner 8 µM)
In short: (§1)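 Medians of duplicate plates are given as relative viability. That measure is the nuclei count in treated wells divided by the count in vehicle wells. Counts were taken on 4× images of lung cancer cell lines in 1536-well plates, 5 days after pin-tool dosing the day after seeding with one drug alone or a fixed anchor-drug dose plus five library-drug doses (not always all listed) in √10 steps.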

[1] = compound: CC(C)N(CCCNC(=O)Nc1ccc(C(C)(C)C)cc1)C[C@H]1O[C@@H](n2ccc3c(N)ncnc32)[C@H](O)[C@@H]1O + NC(=O)Nc1cc(-c2cccc(F)c2)sc1C(=O)N[C@H]1CCCNC1 [AZD7762] (partner 0.2 µM)
In short: as §1

[2] = compound: CC(C)N(CCCNC(=O)Nc1ccc(C(C)(C)C)cc1)C[C@H]1O[C@@H](n2ccc3c(N)ncnc32)[C@H](O)[C@@H]1O + CS(=O)(=O)N1CCN(Cc2cc3nc(-c4cccc5[nH]ncc45)nc(N4CCOCC4)c3s2)CC1 [Pictilisib] (partner 1 µM)
In short: as §1

[3] = compound: CC(C)N(CCCNC(=O)Nc1ccc(C(C)(C)C)cc1)C[C@H]1O[C@@H](n2ccc3c(N)ncnc32)[C@H](O)[C@@H]1O + Nc1ncn([C@H]2C[C@H](O)[C@@H](CO)O2)c(=O)n1 [Decitabine] (partner 2 µM)
In short: as §1

Q: What does the source list for ABC-1?
A: relative viability (Shikonin + Olaparib; first compound 0.01 µM): 0.78; relative viability (Shikonin + Olaparib; first compound 0.1 µM): 0.894; relative viability (Shikonin + Olaparib; first compound 0.3162 µM): 0.948; relative viability (Shikonin + Olaparib; first compound 1 µM): 0.637; relative viability ([1]; first compound 0.08 µM): 0.933; relative viability ([1]; first compound 0.253 µM): 0.954; relative viability ([1]; first compound 2.53 µM): 1.02; relative viability ([1]; first compound 8 µM): 0.729; relative viability ([2]; first compound 0.08 µM): 0.623; relative viability ([2]; first compound 0.253 µM): 0.71; relative viability ([2]; first compound 2.53 µM): 0.828; relative viability ([2]; first compound 8 µM): 0.701; relative viability ([3]; first compound 0.08 µM): 1.03; relative viability ([3]; first compound 0.253 µM): 1.23; relative viability ([3]; first compound 2.53 µM): 1.15; relative viability ([3]; first compound 8 µM): 1.32

Q: Which results are given for NCI-H358?
A: relative viability (Shikonin + Olaparib; first compound 0.01 µM): 0.622; relative viability (Shikonin + Olaparib; first compound 0.1 µM): 0.619; relative viability (Shikonin + Olaparib; first compound 0.3162 µM): 0.539; relative viability (Shikonin + Olaparib; first compound 1 µM): 0.219; relative viability ([1]; first compound 0.08 µM): 0.454; relative viability ([1]; first compound 0.253 µM): 0.538; relative viability ([1]; first compound 0.8 µM): 0.569; relative viability ([1]; first compound 2.53 µM): 0.565; relative viability ([1]; first compound 8 µM): 0.491; relative viability ([2]; first compound 0.08 µM): 0.356; relative viability ([2]; first compound 0.253 µM): 0.335; relative viability ([2]; first compound 0.8 µM): 0.317; relative viability ([2]; first compound 2.53 µM): 0.359; relative viability ([2]; first compound 8 µM): 0.342; relative viability ([3]; first compound 0.08 µM): 0.233; relative viability ([3]; first compound 0.253 µM): 0.187; relative viability ([3]; first compound 0.8 µM): 0.212; relative viability ([3]; first compound 2.53 µM): 0.214; relative viability ([3]; first compound 8 µM): 0.189

Q: Which relative viability (Shikonin + Olaparib; first compound 0.01 µM) does the source give for NCI-H727 here?
A: Its relative viability is 0.685.

Q: What about the relative viability (Shikonin + Olaparib; first compound 0.1 µM) of the same cell line?
A: The relative viability was 0.737.

Q: And the relative viability (Shikonin + Olaparib; first compound 0.3162 µM)?
A: The relative viability was 0.648.

Q: What about the relative viability (Shikonin + Olaparib; first compound 1 µM) of the same cell line?
A: The relative viability was 0.583.

Q: And the relative viability ([1]; first compound 0.08 µM)?
A: Its relative viability is 0.634.

Q: What about the relative viability ([1]; first compound 0.253 µM) of the same cell line?
A: Its relative viability is 0.624.

Q: And the relative viability ([1]; first compound 0.8 µM)?
A: Its relative viability is 0.649.

Q: What about the relative viability ([1]; first compound 2.53 µM) of the same cell line?
A: The relative viability was 0.328.

Q: What about the relative viability ([1]; first compound 8 µM) of the same cell line?
A: Its relative viability is 0.694.

Q: And the relative viability ([2]; first compound 0.08 µM)?
A: Its relative viability is 0.358.

Q: What about the relative viability ([2]; first compound 0.253 µM) of the same cell line?
A: Its relative viability is 0.375.

Q: And the relative viability ([2]; first compound 0.8 µM)?
A: Its relative viability is 0.397.

Q: And the relative viability ([2]; first compound 2.53 µM)?
A: The relative viability was 0.458.

Q: And the relative viability ([2]; first compound 8 µM)?
A: The relative viability was 0.331.

Q: And the relative viability ([3]; first compound 0.08 µM)?
A: The relative viability was 0.907.

Q: What about the relative viability ([3]; first compound 0.253 µM) of the same cell line?
A: The relative viability was 0.687.

Q: What about the relative viability ([3]; first compound 0.8 µM) of the same cell line?
A: The relative viability was 0.885.

Q: And the relative viability ([3]; first compound 2.53 µM)?
A: Its relative viability is 0.905.

Q: What about the relative viability ([3]; first compound 8 µM) of the same cell line?
A: Its relative viability is 0.973.
